Test systems include U-251; MOLT-4; DMS-114; SW-620; OVCAR-3; RXF 393; ACHN; CCRF-CEM; KM12; SF-268; UACC-62; Malme-3M; 786-0; SNB-75; RPMI-8226; HL-60; COLO 205; HOP-92; NCI-H522; Hs-578T.
Experiment in all cases: growth of human tumour cells (NCI), 48 h

Each structure is given as a SMILES string.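 Compound exposure: 48 hours, 5 concentrations, 96-well plates. At the GI50, growth is halved.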 Calls of active or inactive are those of the source. Rule as the data show it: active = GI50 up to about 1.1 µM and inactive = higher.

With `COc1cc(C(C)c2cc3c(cc2OCCCCOc2cc4c(cc2C(C)c2cc(OC)c(OC)c(OC)c2)OCO4)OCO3)cc(OC)c1OC` (centres undefined), the GI50 in the assay on U-251 is 29.7 µM (inactive); with MOLT-4, 41.4 µM (inactive); in the assay on DMS-114, 15.9 µM (inactive); in the assay on SW-620, 26.9 µM (inactive); in the assay with OVCAR-3, 21.7 µM (inactive); in the assay on RXF 393, 17.6 µM (inactive). For the same compound, the GI50 in the assay with ACHN is 69.5 µM (inactive); in the assay on CCRF-CEM, 48.3 µM (inactive); in the assay with KM12, 33 µM (inactive); in the assay on SF-268, 51.5 µM (inactive); in the assay on UACC-62, 21.1 µM (inactive); with Malme-3M, 35.6 µM (inactive). In addition, the GI50 in the assay with 786-0 was 49.2 µM (inactive); in the assay with SNB-75 it was 24.8 µM (inactive); in the assay with RPMI-8226, 25.5 µM (inactive); in the assay on HL-60, 37.8 µM (inactive); with COLO 205, > 100 µM (inactive).

For `OCCc1ccsc1-c1sc(-c2cc(CCO)c(-c3sc(-c4cc(CCO)c(-c5sccc5CCO)s4)cc3CCO)s2)cc1CCO`, the GI50 is 0.957 µM (active) with U-251; 1.14 µM (inactive) in the assay on HOP-92; 0.52 µM (active) in the assay on MOLT-4; 1.31 µM (inactive) in the assay on SW-620; 0.807 µM (active) with NCI-H522; 1.38 µM (inactive) in the assay on OVCAR-3. Moreover, the GI50 with RXF 393 was 0.454 µM (active); in the assay on Hs-578T, 3.13 µM (inactive); in the assay with ACHN, 1.47 µM (inactive); in the assay with CCRF-CEM, 0.647 µM (active); with KM12, 0.621 µM (active); in the assay with SF-268, 0.881 µM (active). The GI50 in the assay on UACC-62 was 1.56 µM (inactive); in the assay on Malme-3M, 1.14 µM (inactive); with 786-0, 0.776 µM (active); with SNB-75 it was 1.27 µM (inactive); in the assay on RPMI-8226, 0.344 µM (active); in the assay on HL-60, 1.53 µM (inactive). For the same compound, the GI50 in the assay with COLO 205 is 1.54 µM (inactive).

Turning to `COc1cc2c(c3c1c(=O)c1ccccc1n3C)C=CC1(CCCC1)O2`, the GI50 with U-251 was 12.8 µM (inactive); in the assay on HOP-92, 16.6 µM (inactive); in the assay on MOLT-4 it was 26.2 µM (inactive); in the assay with SW-620, 20.4 µM (inactive); with NCI-H522 it was 16.3 µM (inactive); in the assay with OVCAR-3, 13.2 µM (inactive). For the same compound, the GI50 in the assay on RXF 393 was 5.61 µM (inactive); with Hs-578T, 2.61 µM (inactive); with ACHN, 16.3 µM (inactive); in the assay with CCRF-CEM it was 9.82 µM (inactive); with KM12, 7.05 µM (inactive); with SF-268 it was 18.8 µM (inactive). The GI50 in the assay on UACC-62 is 13.1 µM (inactive); in the assay with Malme-3M, 16.4 µM (inactive); with 786-0, 6.56 µM (inactive); in the assay with SNB-75, 11.8 µM (inactive); with RPMI-8226, 1.81 µM (inactive); in the assay with HL-60, 7.29 µM (inactive). The GI50 with COLO 205 is 13.6 µM (inactive).

On to `CCOP(=O)(OCC)/C(C#N)=C/c1ccccn1`, for which the GI50 with U-251, in the assay with HOP-92, in the assay with MOLT-4, in the assay with SW-620, in the assay on NCI-H522 and in the assay on OVCAR-3 was > 100 µM (inactive) each time. For the same compound, the GI50 in the assay with RXF 393, with Hs-578T, in the assay on ACHN, with CCRF-CEM, in the assay on KM12 and with SF-268 was > 100 µM (inactive) throughout. The GI50 in the assay on UACC-62, in the assay with Malme-3M, in the assay on 786-0, with SNB-75, in the assay on RPMI-8226 and in the assay on HL-60 was > 100 µM (inactive) in each case. For the same compound, the GI50 with COLO 205 is > 100 µM (inactive).

Take `O=C(Nc1ccccc1)N(C1=NCC(CI)S1)c1ccc(F)cc1F` (centres undefined): the GI50 was > 100 µM (inactive) in the assay with U-251; 13.8 µM (inactive) with HOP-92; 21.6 µM (inactive) with MOLT-4; 62.1 µM (inactive) in the assay on SW-620; 37.9 µM (inactive) with NCI-H522; > 100 µM (inactive) with OVCAR-3. Also, the GI50 in the assay on RXF 393 was 24.3 µM (inactive); with Hs-578T, > 100 µM (inactive); in the assay on ACHN, > 100 µM (inactive); in the assay on CCRF-CEM it was 15.3 µM (inactive); in the assay on KM12 it was 45.6 µM (inactive); in the assay with SF-268, > 100 µM (inactive). The GI50 is 25.6 µM (inactive) in the assay with UACC-62; > 100 µM (inactive) with Malme-3M; 46 µM (inactive) in the assay with 786-0; > 100 µM (inactive) in the assay on SNB-75; 56.2 µM (inactive) in the assay with RPMI-8226; 20.1 µM (inactive) in the assay on HL-60. Besides, the GI50 in the assay with COLO 205 was 46 µM (inactive).

As for `CC[S+]1C2=C(CC(C)(C)CC2=O)[N-]c2ccccc21` (centres undefined), the GI50 with U-251, in the assay with HOP-92, with MOLT-4, in the assay on SW-620, with NCI-H522 and with OVCAR-3 was > 100 µM (inactive) each time. Further, the GI50 in the assay on RXF 393 is > 100 µM (inactive); with Hs-578T, 78.3 µM (inactive); in the assay on ACHN, > 100 µM (inactive); in the assay with CCRF-CEM, > 100 µM (inactive); in the assay with KM12, > 100 µM (inactive); in the assay on SF-268, > 100 µM (inactive). Besides, the GI50 in the assay on UACC-62, in the assay on Malme-3M, with 786-0, in the assay on SNB-75, with RPMI-8226 and in the assay with HL-60 was > 100 µM (inactive) each time. Moreover, the GI50 with COLO 205 was > 100 µM (inactive).

For the compound `Cc1ccc(-c2cc(-c3cc(-c4ccc(C)cc4C)[nH]n3)[nH]n2)c(C)c1`, the GI50 was 13.5 µM (inactive) in the assay on U-251; 18.9 µM (inactive) with HOP-92; 10.1 µM (inactive) in the assay on MOLT-4; 11.8 µM (inactive) in the assay on SW-620; 13.9 µM (inactive) in the assay on NCI-H522; 12.2 µM (inactive) in the assay with OVCAR-3. Further, the GI50 is 14.4 µM (inactive) with RXF 393; 18.1 µM (inactive) in the assay on Hs-578T; 11.5 µM (inactive) in the assay on ACHN; 0.71 µM (active) in the assay with CCRF-CEM; 17.7 µM (inactive) in the assay with KM12; 12.5 µM (inactive) with SF-268. Further, the GI50 in the assay on UACC-62 is 24.8 µM (inactive); in the assay with Malme-3M, 11.1 µM (inactive); in the assay on 786-0, 13 µM (inactive); with SNB-75 it was 18.3 µM (inactive); in the assay on RPMI-8226, 2.66 µM (inactive); in the assay on HL-60 it was 0.027 µM (active). Also, the GI50 in the assay on COLO 205 was 12.7 µM (inactive).

In the case of `Cc1noc2nnn(-c3ccc(Cl)cc3)c(=O)c12`, the GI50 in the assay with U-251 is 4.92 µM (inactive); in the assay with HOP-92 it was 6.4 µM (inactive); with MOLT-4, 0.364 µM (active); with SW-620, 0.67 µM (active); with NCI-H522, 0.5 µM (active); with OVCAR-3, 2.36 µM (inactive). In addition, the GI50 with RXF 393 is 0.879 µM (active); in the assay on Hs-578T it was 18.6 µM (inactive); with ACHN, 3.59 µM (inactive); in the assay on CCRF-CEM it was 0.355 µM (active); with KM12, 11.7 µM (inactive); with SF-268, 6.98 µM (inactive). The GI50 in the assay with UACC-62 was 4.43 µM (inactive); in the assay on Malme-3M, 11.9 µM (inactive); with 786-0, 2.45 µM (inactive); with SNB-75, 1.1 µM (active); in the assay on RPMI-8226, 0.36 µM (active); with HL-60, 1.39 µM (inactive). Also, the GI50 in the assay on COLO 205 was 2.96 µM (inactive).

Regarding `COc1cc(CCNC2=CC(=O)c3ncccc3C2=O)ccc1O`, the GI50 is 2.09 µM (inactive) in the assay with U-251; 19.2 µM (inactive) in the assay with HOP-92; 2.99 µM (inactive) with MOLT-4; 2.84 µM (inactive) with SW-620; 2.08 µM (inactive) in the assay on NCI-H522; 1.22 µM (inactive) in the assay on OVCAR-3. Further, the GI50 was 5.45 µM (inactive) in the assay with RXF 393; 2.36 µM (inactive) in the assay with Hs-578T; 4.71 µM (inactive) in the assay on ACHN; 3.56 µM (inactive) with CCRF-CEM; 5.25 µM (inactive) with KM12; 8.11 µM (inactive) in the assay on SF-268. Further, the GI50 in the assay on UACC-62 was 1.96 µM (inactive); in the assay on Malme-3M, 0.753 µM (active); with 786-0 it was 4.2 µM (inactive); in the assay on SNB-75 it was 1.63 µM (inactive); in the assay on RPMI-8226, 6.76 µM (inactive); in the assay with HL-60, 3.01 µM (inactive). For the same compound, the GI50 in the assay on COLO 205 is 18.6 µM (inactive).

For the compound `Oc1cc(-c2c[nH]c3ccccc23)nc2cc3c(cc12)OCO3`, the GI50 in the assay on U-251 is > 100 µM (inactive); in the assay with MOLT-4, > 100 µM (inactive); in the assay with DMS-114 it was > 100 µM (inactive); with SW-620, > 100 µM (inactive); in the assay on OVCAR-3 it was 8.61 µM (inactive); with RXF 393 it was > 100 µM (inactive). The GI50 was > 100 µM (inactive) in the assay with ACHN; > 100 µM (inactive) in the assay with CCRF-CEM; > 100 µM (inactive) with SF-268; 66.8 µM (inactive) in the assay with UACC-62; 23.6 µM (inactive) with Malme-3M; > 100 µM (inactive) in the assay with 786-0. For the same compound, the GI50 in the assay with SNB-75 is 21.6 µM (inactive); in the assay with RPMI-8226, > 100 µM (inactive); in the assay with HL-60, > 100 µM (inactive); in the assay on COLO 205, > 100 µM (inactive).

Turning to `CCCCCCCCCCCCCCN` [TETRADECYLAMINE], the GI50 in the assay on U-251, in the assay on HOP-92, with MOLT-4, in the assay on SW-620, in the assay on NCI-H522 and with OVCAR-3 was > 100 µM (inactive) in each case. Further, the GI50 with RXF 393, in the assay on Hs-578T, in the assay on ACHN, in the assay with CCRF-CEM, in the assay on KM12 and in the assay with SF-268 was > 100 µM (inactive) in each case. The GI50 in the assay with UACC-62, in the assay on Malme-3M, in the assay on 786-0, in the assay on SNB-75, in the assay on RPMI-8226 and in the assay on HL-60 was > 100 µM (inactive) each time. In the assay on COLO 205, the GI50 was > 100 µM (inactive).

The values are drawn from ChEMBL document CHEMBL1201862, “PubChem BioAssay data set” (2004).
